Results taken from ChEMBL document CHEMBL1201862, “PubChem BioAssay data set” (2004).
Activity calls are given as the source filed them.

Legend:
[1] = molecular target: DNA dC->dU-editing enzyme APOBEC-3A (Homo sapiens, UniProt P31941); assay: A3A deaminase inhibition for selectivity – biochemical, dose response (AID 504722); assay type: functional
[2] = molecular target: DNA dC->dU-editing enzyme APOBEC-3G (Homo sapiens, UniProt Q9HC16); assay: Dose Response confirmation of small molecule APOBEC3G DNA Deaminase Inhibitors via a fluorescence-based single-stranded DNA deaminase assay. [Related pubchem assays (depositor defined):AID493012, AID493028]; assay type: functional
[3] = molecular target: T1, Rac GTPase-activating protein 1 (Homo sapiens, UniProt Q9H0H5); assay: blockers of MgcRacGAP-driven Rac1 GTP hydrolysis – biochemical, ADP Hunter fluorescence, primary and confirmatory, confirmation (AID 624330); assay type: functional
T1 sequence (Q9H0H5 whole entry): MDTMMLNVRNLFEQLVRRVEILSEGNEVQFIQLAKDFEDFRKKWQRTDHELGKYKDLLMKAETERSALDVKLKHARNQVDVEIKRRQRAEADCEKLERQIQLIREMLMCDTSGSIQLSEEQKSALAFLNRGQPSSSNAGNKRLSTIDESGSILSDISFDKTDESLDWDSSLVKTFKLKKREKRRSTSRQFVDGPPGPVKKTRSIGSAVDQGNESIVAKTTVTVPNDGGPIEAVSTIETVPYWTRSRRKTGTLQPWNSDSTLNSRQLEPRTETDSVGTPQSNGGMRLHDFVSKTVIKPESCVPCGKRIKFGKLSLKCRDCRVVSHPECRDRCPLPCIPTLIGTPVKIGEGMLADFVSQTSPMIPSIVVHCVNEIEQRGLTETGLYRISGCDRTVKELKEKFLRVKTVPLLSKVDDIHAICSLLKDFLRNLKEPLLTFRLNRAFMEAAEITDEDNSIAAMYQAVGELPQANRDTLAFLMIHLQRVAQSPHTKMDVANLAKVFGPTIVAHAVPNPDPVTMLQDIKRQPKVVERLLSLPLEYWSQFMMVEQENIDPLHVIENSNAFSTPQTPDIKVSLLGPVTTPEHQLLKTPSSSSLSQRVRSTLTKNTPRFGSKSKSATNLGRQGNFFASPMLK

[4] = molecular target: Eukaryotic translation initiation factor 4E (Mus musculus, UniProt P63073); assay: blockers of eIF4G binding by eIF4E – biochemical, TR-FRET, dose response (AID 855); assay type: functional;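 note: potency for disrupting eIF4E binding to eIF4GI seen as loss of FRET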
[5] = molecular target: T2, Heat shock factor protein 1 (Mus musculus, UniProt P38532); assay: enhancement of HSF1-driven luciferase signal – cell-based, NIH3T3, luminescence, dose retest, confirmation (AID 435004); assay type: functional;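 note: stress induced by proteasome inhibitor MG132 added 30 min after compound; luciferase reporter driven by HSF1 response element in NIH3T3 cells; actives raise luminescence as potentiators of the MG132 stress response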
T2 sequence (P38532 whole entry): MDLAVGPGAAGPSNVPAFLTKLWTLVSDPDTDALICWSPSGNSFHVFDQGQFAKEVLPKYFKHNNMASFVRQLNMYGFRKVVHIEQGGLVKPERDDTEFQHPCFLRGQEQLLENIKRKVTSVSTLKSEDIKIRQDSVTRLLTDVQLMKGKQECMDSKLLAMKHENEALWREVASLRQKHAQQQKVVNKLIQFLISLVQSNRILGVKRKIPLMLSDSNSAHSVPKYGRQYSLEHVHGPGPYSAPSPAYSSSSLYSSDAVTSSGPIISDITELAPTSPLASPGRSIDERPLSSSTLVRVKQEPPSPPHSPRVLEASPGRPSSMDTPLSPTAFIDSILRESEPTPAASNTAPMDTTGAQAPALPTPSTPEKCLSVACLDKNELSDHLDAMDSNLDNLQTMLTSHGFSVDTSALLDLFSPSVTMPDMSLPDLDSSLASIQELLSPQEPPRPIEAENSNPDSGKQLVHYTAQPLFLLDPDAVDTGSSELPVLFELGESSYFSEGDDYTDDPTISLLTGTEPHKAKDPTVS

[6] = viability of uninfected HEp-2 cells – cell-based, HTS, cytotoxicity control for RSV inhibitor project, dose response (AID 2410); assay type: functional; settings: human respiratory syncytial virus
cells [7] = assay: cells
Vero [8] = assay: cells; assay type: functional, cell-based; settings: Chlorocebus sabaeus
Vero [9] = assay: cells; assay type: functional; settings: Chlorocebus sabaeus
[10] = molecular target: T3, Carboxy-terminal domain RNA polymerase II polypeptide A small phosphatase 1 (Homo sapiens, UniProt Q9GZU7); assay: CTDSP1 inhibitors, concentration-response, biochemical, absorbance readout, ultra-high-throughput screen actives (AID 540297); assay type: functional
T3 sequence (Q9GZU7 whole entry): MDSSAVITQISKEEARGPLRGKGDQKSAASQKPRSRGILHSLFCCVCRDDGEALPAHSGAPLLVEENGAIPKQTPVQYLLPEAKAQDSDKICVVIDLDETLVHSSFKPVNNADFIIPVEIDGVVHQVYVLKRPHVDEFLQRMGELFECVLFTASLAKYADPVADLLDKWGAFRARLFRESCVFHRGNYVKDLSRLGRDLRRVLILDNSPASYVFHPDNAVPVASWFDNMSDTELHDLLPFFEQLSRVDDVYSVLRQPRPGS

[11] = THP-1 cell cytotoxicity, dose response, cytotoxicity control for non-replicating M. tuberculosis project (AID 489025); assay type: functional
[12] = HepG2 cell cytotoxicity, dose response, cytotoxicity control for non-replicating M. tuberculosis project (AID 489018); assay type: functional; settings: Mycobacterium tuberculosis
[13] = Vero E6 cell cytotoxicity, dose response, cytotoxicity control for non-replicating M. tuberculosis project, secondary assay (AID 492998); assay type: functional, VeroE6; settings: Vero C1008
cells [14] = assay type: functional
CAAX prenyl protease 2 = molecular target: T4, CAAX prenyl protease 2 (Saccharomyces cerevisiae S288c, UniProt Q03530); assay type: biochemical
T4 sequence (Q03530 whole entry): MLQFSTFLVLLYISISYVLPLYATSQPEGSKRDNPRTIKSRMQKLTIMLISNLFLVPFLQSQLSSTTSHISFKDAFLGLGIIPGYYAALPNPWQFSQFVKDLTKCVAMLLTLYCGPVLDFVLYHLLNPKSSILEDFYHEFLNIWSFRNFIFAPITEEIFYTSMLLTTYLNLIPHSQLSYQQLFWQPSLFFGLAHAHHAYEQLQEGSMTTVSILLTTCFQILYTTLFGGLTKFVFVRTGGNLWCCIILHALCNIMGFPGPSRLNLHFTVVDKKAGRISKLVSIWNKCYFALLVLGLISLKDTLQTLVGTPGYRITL

[15] = Luminescence Cell-Based Dose Retest to Confirm Inhibitors of Cancer Stem Cells. [Related pubchem assays (depositor defined):AID2717, AID2721]; assay type: functional; settings: Homo sapiens
[16] = Trypanosoma cruzi growth suppression in host cells – NIH3T3 host cells, beta-gal luminescence, confirmation (AID 2044); assay type: functional, cell-based;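 note: intracellular parasites grown in NIH/3T3 mouse fibroblasts as host cells; luminescent beta-galactosidase reporter signal from transgenic T. cruzi replicating inside host cells; inhibitors lower the luminescence signal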
[17] = NIH3T3 cell viability loss – ATP luminescence, mouse fibroblasts, counter-screen, dose response (AID 2010); assay type: functional, cell-based;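 note: cells exposed to compound for about 90 hours before reading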
[18] = NIH-3T3 fibroblast cytotoxicity, dose response, cytotoxicity control, cell-based, fluorescence, Alamar Blue, secondary assay (AID 2327); assay type: functional;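 note: NIH-3T3 mouse fibroblasts cultured with fluconazole at 8 µg/mL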
[19] = fluconazole-exposed Candida albicans growth modulators – fluorescence, retest, confirmation (AID 2467); assay type: functional, cell-based
[20] = microbe, parasite or virus in culture; assay type: functional; settings: Mycobacterium tuberculosis
[21] = molecular target: T5, Serine/threonine-protein phosphatase (Candida dubliniensis (strain CD36 / CBS 7987 / NCPF 3949 / NRRLY-17841) (Yeast), UniProt B9W6M3); assay: blockers of CaCl2-induced CDRE-lacZ signaling – S. cerevisiae, luminescence, secondary, dose response (AID 2388); assay type: functional, cell-based;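 note: yeast reporter cells carrying a calcineurin-responsive lacZ construct stimulated with calcium chloride; luminescent beta-galactosidase reporter signal in whole cells rather than isolated phosphatase activity; potency for inhibition where a drop in reporter signal means calcineurin blockade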
T5 sequence (B9W6M3 whole entry): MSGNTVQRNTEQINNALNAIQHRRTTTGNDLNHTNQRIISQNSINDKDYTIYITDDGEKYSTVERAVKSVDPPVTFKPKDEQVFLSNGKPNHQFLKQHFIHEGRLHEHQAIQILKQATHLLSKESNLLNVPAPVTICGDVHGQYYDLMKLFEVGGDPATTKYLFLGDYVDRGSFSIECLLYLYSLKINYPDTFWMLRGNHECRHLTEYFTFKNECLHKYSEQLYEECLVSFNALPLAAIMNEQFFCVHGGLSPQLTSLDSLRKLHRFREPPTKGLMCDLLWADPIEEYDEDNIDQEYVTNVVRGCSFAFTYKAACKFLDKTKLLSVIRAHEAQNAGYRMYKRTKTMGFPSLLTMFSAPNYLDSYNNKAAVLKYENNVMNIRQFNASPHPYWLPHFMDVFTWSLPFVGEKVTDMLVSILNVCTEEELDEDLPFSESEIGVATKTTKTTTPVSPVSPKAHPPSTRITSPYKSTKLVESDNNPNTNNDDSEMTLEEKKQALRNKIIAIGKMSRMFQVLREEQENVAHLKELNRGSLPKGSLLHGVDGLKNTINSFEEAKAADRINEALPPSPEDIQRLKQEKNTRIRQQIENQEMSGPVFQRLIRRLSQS

[22] = molecular target: ATP-dependent molecular chaperone HSP82 (Candida albicans (strain WO-1) (Yeast), UniProt C4YTQ8); assay: steroid-induced GRE reporter decrease in yeast – S. cerevisiae, luminescence, Hsp90 inhibitor project, dose response (AID 2400); assay type: functional, cell-based;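 note: beta-galactosidase luminescence from glucocorticoid response element reporter as proxy for Hsp90 function; inhibitor potency where signal loss means Hsp90 inhibition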
Sequence of ATP-dependent molecular chaperone HSP82 (C4YTQ8 whole entry): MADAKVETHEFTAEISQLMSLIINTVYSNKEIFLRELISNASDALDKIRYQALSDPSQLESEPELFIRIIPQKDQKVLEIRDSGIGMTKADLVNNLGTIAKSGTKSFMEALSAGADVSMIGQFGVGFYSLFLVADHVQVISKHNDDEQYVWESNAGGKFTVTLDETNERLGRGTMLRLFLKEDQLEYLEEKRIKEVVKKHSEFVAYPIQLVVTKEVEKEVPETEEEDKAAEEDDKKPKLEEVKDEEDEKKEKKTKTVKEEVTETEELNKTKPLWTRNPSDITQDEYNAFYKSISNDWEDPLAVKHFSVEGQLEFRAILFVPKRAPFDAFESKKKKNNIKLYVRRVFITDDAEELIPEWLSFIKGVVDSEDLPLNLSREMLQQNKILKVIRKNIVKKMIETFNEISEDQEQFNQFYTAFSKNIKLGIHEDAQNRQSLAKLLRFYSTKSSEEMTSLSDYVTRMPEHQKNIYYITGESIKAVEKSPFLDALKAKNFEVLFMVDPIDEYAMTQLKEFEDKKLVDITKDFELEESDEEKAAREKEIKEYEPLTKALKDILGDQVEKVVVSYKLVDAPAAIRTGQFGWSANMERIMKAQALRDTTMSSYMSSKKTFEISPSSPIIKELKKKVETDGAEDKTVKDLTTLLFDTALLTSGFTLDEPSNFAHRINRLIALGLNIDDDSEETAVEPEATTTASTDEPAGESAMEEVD

Sequence of DNA dC->dU-editing enzyme APOBEC-3G (Q9HC16 whole entry): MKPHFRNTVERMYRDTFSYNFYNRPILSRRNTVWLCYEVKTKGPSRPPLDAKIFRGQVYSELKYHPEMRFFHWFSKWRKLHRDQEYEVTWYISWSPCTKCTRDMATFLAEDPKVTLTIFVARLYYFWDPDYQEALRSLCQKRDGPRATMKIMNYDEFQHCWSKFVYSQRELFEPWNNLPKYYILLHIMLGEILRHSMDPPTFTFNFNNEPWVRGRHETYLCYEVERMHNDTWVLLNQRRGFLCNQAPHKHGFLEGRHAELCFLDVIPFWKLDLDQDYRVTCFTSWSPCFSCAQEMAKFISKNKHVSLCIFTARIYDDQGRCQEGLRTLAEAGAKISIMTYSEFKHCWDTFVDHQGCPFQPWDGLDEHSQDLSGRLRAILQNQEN
Sequence of DNA dC->dU-editing enzyme APOBEC-3A (P31941 whole entry): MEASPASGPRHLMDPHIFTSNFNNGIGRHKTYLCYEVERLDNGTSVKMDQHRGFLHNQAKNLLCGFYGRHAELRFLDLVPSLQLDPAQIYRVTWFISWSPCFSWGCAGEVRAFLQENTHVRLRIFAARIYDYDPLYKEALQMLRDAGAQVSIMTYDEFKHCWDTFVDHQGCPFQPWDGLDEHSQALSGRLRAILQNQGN
Sequence of Eukaryotic translation initiation factor 4E (P63073 whole entry): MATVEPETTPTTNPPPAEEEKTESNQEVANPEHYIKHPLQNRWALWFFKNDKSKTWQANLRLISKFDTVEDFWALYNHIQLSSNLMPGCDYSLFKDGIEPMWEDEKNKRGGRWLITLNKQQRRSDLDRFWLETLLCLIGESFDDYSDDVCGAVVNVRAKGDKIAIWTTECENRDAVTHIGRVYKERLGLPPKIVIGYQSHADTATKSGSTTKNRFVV

## Cc1cc(-c2nnc(S)n2/N=C/c2ccccc2[N+](=O)[O-])[nH]n1
[1]
  IC50: > 100 µM (inactive)
[2]
  IC50: 6.21 µM (active)
[3]
  IC50: 107 µM (active)

## C=CCSc1nc(-c2ccc(OC)cc2)c(C#N)c(=O)n1CC=C
[4]
  IC50: 50 µM (inactive)
[5]
  EC50: 12.7 µM (active)

## Cc1cc(C[n+]2cc(Cl)ccc2N)c2ncccc2c1
[6]
  CC50: > 50 µM (active)
Cells [7]
  IC50: 35.7 µM (active)

## CCOc1ccc(N2C(=O)C(CC(=O)Nc3ccccc3)N(Cc3ccccn3)C2=S)cc1 (stereo unspecified)
[6]
  CC50: 33.6 µM (active)
Cells [7]
  IC50: 5 µM (active)

## COc1cc2c(cc1OC)CN(C(=O)c1cccc(S(=O)(=O)N3CCc4ccccc43)c1)CC2
[6]
  CC50: 18.7 µM (active)
Vero [8]
  IC50: 19.5 µM (active)
Vero [9]
  CC50: > 25 µM (active)
Cells [7]
  IC50: 45.9 µM (active)

## O=C(O)Cc1ccc(NC(=O)c2ccc3c(c2)C(=O)N(Cc2ccco2)C3=O)cc1
[10]
  IC50: 3.79 µM (active)

## Nn1c(Cc2cccc3ccccc23)n[nH]c1=S
[1]
  IC50: > 100 µM (inactive)
[2]
  IC50: 2.94 µM (active)

## COCCn1c(SC(C)C(=O)Nc2ncc(Cl)cc2Cl)nc2ccccc21 (stereo unspecified)
[6]
  CC50: 25.5 µM (active)
Vero [8]
  IC50: 8.99 µM (active)
Cells [7]
  IC50: 14.8 µM (active)

## COc1ccccc1-c1nnc(NC(=O)c2ccc3ncsc3c2)o1
[11]
  CC50: > 40 µM (active)
[12]
  CC50: > 20 µM (active)
[13]
  CC50: 10.3 µM (active)
Cells [14]
  IC50: 7.75 µM (active)

## CCOC(=O)Nc1ccc2c(c1)N(C(=O)CCN1CCOCC1)c1ccccc1[S+]2[O-] (stereo unspecified)
[11]
  CC50: 26.7 µM (active)
[13]
  CC50: > 20 µM (active)
[5]
  EC50: > 260 µM (inactive)

## O=C(NNC(=O)c1cc2cc3ccccc3nc2s1)c1ccc(F)cc1
[10]
  IC50: 4.28 µM (active)

## CCOC(=O)[C@@H]1[C@H]2COc3ccc(Br)cc3[C@@H]2N2C(=O)N(c3cccc(C)c3)C(=O)[C@]12C
CAAX prenyl protease 2
  AC50: 4.52 µM (active)

## C/C(=N\NC(=O)COc1cccc(C)c1)c1ccc2ccccc2c1O
[11]
  CC50: 8.95 µM (active)
[12]
  CC50: 19.1 µM (active)
[13]
  CC50: 16.5 µM (active)

## CCn1c(SC)nnc1-c1sc2cc(Cl)ccc2c1Cl
[6]
  CC50: 11.2 µM (active)
Cells [7]
  IC50: 9.26 µM (active)

## Cn1c(S)nnc1-c1csc(-c2ccccc2)n1
[1]
  IC50: > 100 µM (inactive)
[2]
  IC50: 3.06 µM (active)

## O=[N+]([O-])c1cccc(-c2csc(N/N=C/c3cccc(O)c3)n2)c1
[15]
  AC50: 2.8 µM (active)
[10]
  IC50: 10.8 µM (active)

## CCc1nnc(S)n1/N=C/c1ccc(N(CC)CC)cc1
[1]
  IC50: > 100 µM (inactive)
[2]
  IC50: 6.69 µM (active)

## O=C(Nc1ccc(Cl)c([N+](=O)[O-])c1)C(Sc1ccccc1)c1ccccc1 (stereo unspecified)
[16]
  EC50: 1.45 µM (active)
[17]
  EC50: > 60 µM (inconclusive)
CAAX prenyl protease 2
  AC50: 7.77 µM (active)

## CCOC(=O)Cc1csc(NC(=O)c2c(O)c3ccccc3n(CCC(C)C)c2=O)n1
[11]
  CC50: 15.2 µM (active)
[12]
  CC50: > 20 µM (active)
[13]
  CC50: 8.56 µM (active)
Cells [14]
  IC50: 2.08 µM (active)

## CC1(O)CC(c2ccc(Cl)cc2)=NN1C(=O)c1ccc([N+](=O)[O-])cc1 (stereo unspecified)
[18]
  EC50: > 150 µM (inconclusive)
[19]
  EC50: 0.404 µM (active)
[20]
  CC50: 24.7 µM (active)
[21]
  EC50: > 180 µM (inactive)
[11]
  CC50: 15.5 µM (active)
[15]
  AC50: 3.86 µM (active)
[12]
  CC50: > 20 µM (active)
[13]
  CC50: 19.5 µM (active)
Cells [14]
  IC50: 14.2 µM (active)
[22]
  EC50: 12.5 µM (active)
